Data reported in patent US4606911A, “Pharmaceutical composition for the prevention of dental caries” (Rohto Pharmaceutical Co. Ltd., priority 1984, dated 1986).
In brackets after ≈: the same amount, converted by molar mass. Entries after “also recorded” stand apart in the source; their conditions may differ.

Tests used:
Assay type in all cases: cell-based
[1] = system: Streptococcus mutans OMZ 176; experiment: Antibacterial activity (MIC, growth in BHI medium); design: key to Antibacterial activity (growth): -: grow; ±: slightly grow; +: not grow; details: for antibacterial activity to S. mutans (in words): text statement
Protocol: (§1) To a test tube was charged 3.8 ml of Brain Heart Infusion (BHI) medium, and 100 μl of a sample solution containing oleanolic, ursolic or glycyrrhetic acid and 100 μl of pre-incubated culture of bacterium selected from those listed below were added thereto. The mixture was incubated at 37° C. and then allowed to stand over night. The extent of the growth of bacterium was observed after two or five days.
Streptococcus mutans OMZ 176

Esherichia coli K12 = experiment: Antibacterial activity (MIC, growth in BHI medium); design: key to Antibacterial activity (growth): -: grow; ±: slightly grow; +: not grow
Protocol: as §1
Esherichia coli K12 (Gram negative)

bacterial cells = experiment: Adherence of bacterial cells to the surface of an extracted tooth; details: extracted tooth suspended in a culture medium containing sucrose
[2] = system: Serratia marcescens IFO 12648; experiment: Antibacterial activity (MIC, growth in BHI medium); design: key to Antibacterial activity (growth): -: grow; ±: slightly grow; +: not grow
Protocol: as §1, with “days. The MIC value was determined for each sample and summarized in Table 2. |Serratia marcescens IFO 12648” for “days.”

[3] = system: Bacillus megaterium QM B1551; experiment: Antibacterial activity (MIC, growth in BHI medium); design: key to Antibacterial activity (growth): -: grow; ±: slightly grow; +: not grow
Protocol: as §1, with “days. The MIC value was determined for each sample and summarized in Table 2. |Bacillus megaterium QM B1551” for “days.”

[4] = system: S. mutans OMZ 176 (serotype d); experiment: microbe, parasite or virus in culture
Protocol: The adherence-inhibiting activity of the triterpenes of the formula (I) was measured using an inner wall of a test tube in place of the surface of a tooth.
To 2.9 ml of BHI medium containing 5% sucrose in a test tube (i) are added 30 μl of a sample solution prepared by dissolving a compound of: the formula (I) in H2 O or dimethylsulfoxide (DMSO) and 100 μl of culture medium containing S. mutans OMZ 176 (serotype d) which was preincuvated at 37° C. for 24 hours in BHI medium, and the mixture is incubated at 37° C. for 20 hours, with the test tube being maintained at a slant of 30°. The test tube is revolved gently two or three times and the supernatant is transferred to another test tube (ii). To the first test tube (i) is added 3 ml of 50 mM phosphate buffer (pH 7.5), and the test tube is gently revolved two or three times. The resultant supernatant is transferred to the third test tube (iii). The test tubes (ii) and (iii) are each centrifuged and respective supernatants are discarded. To each of the test tubes (i), (ii) and (iii) is added 3 ml of 0.5M NaOH, and the test tubes are shaken to suspend bacterial cells. Absorbance of the resulting suspension is measured at 660 nm. The absorbances obtained with respect to the test tube (i), (ii) and (iii) are represented by Ab(i), Ab(ii) and Ab(iii), respectively. Ab(i) reflects the amount of the bacterial cells adhered to the wall of the test tube and Ab(ii) and Ab(iii) correspond to the amount of the bacterial cells not adhered to the wall.
The same procedure is repeated using 30 μl of distilled water or DMSO in place of the sample solution to obtain a control. The absorbance of the control is represented by Ab(Cont.).
Adherence percentage of bacteria is calculated from the following equation. [formula]
Adherence inhibitory percentage (AIP) is calculated using the adherence percentage according to the following equation. [formula]
The magnitude of adherence-inhibiting activity of each of the samples is shown, in Table 3, by the use of the following symbols: […]

[5] = system: Pseudomonas aeruginosa KM338; experiment: Antibacterial activity (MIC, growth in BHI medium); design: key to Antibacterial activity (growth): -: grow; ±: slightly grow; +: not grow
Protocol: as §1, with “days. The MIC value was determined for each sample and summarized in Table 2. |Pseudomonas aeruginosa KM338” for “days.”

[6] = Streptococcus mutans, read-out: Adherence-inhibiting activity (AIP)

## CC1(C)CC[C@]2(C(=O)O)CC[C@]3(C)C(=CC[C@@H]4[C@@]5(C)CC[C@H](O)C(C)(C)[C@@H]5CC[C@]43C)[C@@H]2C1 [Oleanolic acid]
[1]; 10 μg/ml
  Antibacterial activity (growth): -
  antibacterial activity at 10 μg/ml (in words): ineffective for exhibiting antibacterial activity
[1]; 25 μg/ml
  Antibacterial activity (growth): -
[1]; 50 μg/ml
  Antibacterial activity (growth): ±
[1]; 100 μg/ml
  Antibacterial activity (growth): ±
[1]; 200 μg/ml
  Antibacterial activity (growth): ±
[1]; 400 μg/ml
  Antibacterial activity (growth): ±
[1]; Streptococcus mutans, OMZ176, Streptococcus mutans OMZ 176, BHI, 37° C., read-out: MIC (minimum inhibitory concentration)
  MIC: 400 µg/mL (≈ 876 µM)
[1]
  antibacterial activity to S. mutans (in words): also exhibit the selective activity on S. mutans, although the magnitude of the activity is each less than that of glycyrrthetic acid
[1]; listed as oleanolic acid
  antibacterial activity to S. mutans (in words): have both of the adherence-inhibiting activity and the selective antibacterial activity to S. mutans; also recorded: have both activities
Esherichia coli K12; 10 μg/ml
  Antibacterial activity (growth): -
Esherichia coli K12; 25 μg/ml
  Antibacterial activity (growth): -
Esherichia coli K12; 50 μg/ml
  Antibacterial activity (growth): -
Esherichia coli K12; 100 μg/ml
  Antibacterial activity (growth): -
Esherichia coli K12; 200 μg/ml
  Antibacterial activity (growth): -
Esherichia coli K12; 400 μg/ml
  Antibacterial activity (growth): -
Esherichia coli K12; Esherichia coli, BHI, 37° C., read-out: MIC (minimum inhibitory concentration)
  MIC: > 400 µg/mL
Bacterial cells
  adherence of bacterial cells to the surface of an extracted tooth: completely inhibited
[2]; 10 μg/ml
  Antibacterial activity (growth): -
[2]; 25 μg/ml
  Antibacterial activity (growth): -
[2]; 50 μg/ml
  Antibacterial activity (growth): -
[2]; 100 μg/ml
  Antibacterial activity (growth): -
[2]; 200 μg/ml
  Antibacterial activity (growth): -
[2]; 400 μg/ml
  Antibacterial activity (growth): -
[2]; IFO12648, Serratia marcescens, BHI, 37° C., read-out: MIC (minimum inhibitory concentration)
  MIC: > 400 µg/mL
[3]; 10 μg/ml
  Antibacterial activity (growth): -
[3]; 25 μg/ml
  Antibacterial activity (growth): -
[3]; 50 μg/ml
  Antibacterial activity (growth): -
[3]; 100 μg/ml
  Antibacterial activity (growth): -
[3]; 200 μg/ml
  Antibacterial activity (growth): -
[3]; 400 μg/ml
  Antibacterial activity (growth): -
[3]; Priestia megaterium, QMB1551, Bacillus megaterium, BHI, 37° C., read-out: MIC (minimum inhibitory concentration)
  MIC: > 400 µg/mL
[4]; Streptococcus mutans, 20 h, read-out: concentration at which adherence of the bacterial cells is inhibited
  minimal effective concentration: 10 µg/mL
[4]; [6]
  inhibition at 10 µg/mL: > 50%
  inhibition at 20 µg/mL: > 50%
  inhibition at 30 µg/mL: > 50%
  inhibition at 50 µg/mL: > 50%
  inhibition at 100 µg/mL: > 50%
[4]; text statement, listed as oleanolic acid
  adherence-inhibiting activity (in words): have both of the adherence-inhibiting activity and the selective antibacterial activity to S. mutans; also recorded: have both activities
[5]; 10 μg/ml
  Antibacterial activity (growth): -
[5]; 25 μg/ml
  Antibacterial activity (growth): -
[5]; 50 μg/ml
  Antibacterial activity (growth): -
[5]; 100 μg/ml
  Antibacterial activity (growth): -
[5]; 200 μg/ml
  Antibacterial activity (growth): -
[5]; 400 μg/ml
  Antibacterial activity (growth): -
[5]; KM338, Pseudomonas aeruginosa, BHI, 37° C., read-out: MIC (minimum inhibitory concentration)
  MIC: > 400 µg/mL
